The test system of assay [1] is Adrenaline-Exacerbated Glucose Intolerance. Put plainly: Reversal of Adrenaline-Exacerbated Glucose Intolerance in Mice. The assay is classed as in vivo, CFLP female mice. To be noted: 20 μmol/kg oral gavage, 30 min before glucose (1 g/kg) and adrenaline (300 μg/kg) s.c.; blood samples 0-120 min; versus water dosed control. As for the experimental part:
Reversal of Adrenaline-Exacerbated Glucose Intolerance in Mice CFLP female mice of about 25 g were fasted for 24 hours prior to receiving water (10 ml/kg) or the compound by oral gavage. Thirty minutes later, glucose (1 g/kg) and adrenaline (300 μg/kg) were injected subcutaneously. Blood samples for glucose analysis were taken serially from the tail of each mouse at 0, 30, 60, 90 and 120 minutes after dosing glucose and the results are expressed below as the percentage reduction in the area under the blood glucose curve; the compound treated groups being compared to the water dosed control group. Six mice were used in each treatment group.

The target in a further assay is T1, α2-Adrnoceptor (Homo sapiens, UniProt P08913).
T1 construct: from tissue; host or cells: human platelet membranes
T1 sequence (P08913 1-465): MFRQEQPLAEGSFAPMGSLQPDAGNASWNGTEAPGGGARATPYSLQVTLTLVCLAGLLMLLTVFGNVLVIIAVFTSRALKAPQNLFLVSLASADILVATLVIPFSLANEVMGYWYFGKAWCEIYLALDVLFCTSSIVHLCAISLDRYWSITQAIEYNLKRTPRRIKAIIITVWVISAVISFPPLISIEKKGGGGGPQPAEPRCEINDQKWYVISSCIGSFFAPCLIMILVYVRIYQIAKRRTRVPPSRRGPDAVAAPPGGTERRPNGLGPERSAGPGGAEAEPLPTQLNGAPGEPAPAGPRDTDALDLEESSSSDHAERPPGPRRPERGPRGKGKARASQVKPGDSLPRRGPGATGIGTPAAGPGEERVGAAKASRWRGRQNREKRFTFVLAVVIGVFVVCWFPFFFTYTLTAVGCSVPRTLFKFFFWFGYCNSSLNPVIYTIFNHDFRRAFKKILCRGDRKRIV
Put plainly: α2-Adrenoceptor binding ([3H] Rauwolscine, human platelet membranes). As for the experimental part:
Human platelet membranes were incubated with [^3 H] Rauwolscine (0.5-1.0 nM) for 30 minutes at 30° C. with varying concetrates of the drug (0.1-10,000 nM). The binding assay was stopped by filtering and rinsing on GF B glass fibre filters.
Binding Affinity (Ki) was calculated using the Cheng-Prussoff equation.

Where a name gives a salt, the structure may show the parent alone. Read-outs that look alike come from different tables or passages of the source.

As a reminder, the Ki is a measure of affinity in units of concentration, obtained from inhibition or displacement.

As to `Clc1cccc2c1CC(NC1=NCCO1)C2` (stereo not shown) [Example 3, 2-[2-(4-Chloro-2,3-dihydro-1H-indene)amino]4,5-dihydrooxazole], the “% Reduction in area under Blood Glucose Curve” value (“% Reduction in area” below) in assay [1] stood at 42%. The affinity at α2-Adrnoceptor, expressed as Ki, was 1 nM.
In turn, `c1ccc2c(c1)CC(NC1=NCCN1)C2` [Example 2, 2-[2-(2,3-Dihydro-1H-indene)amino)4,5-dihydroimidazole hydrochloride hemihydrate] showed a Ki on α2-Adrnoceptor of 98 nM.
As for `c1ccc2c(c1)CC(NC1=NCCO1)C2` [Example 1, 2-[2-(2,3-Dihydro-1H-indene)amino]4,5-dihydrooxazole], the “% Reduction in area” value in assay [1] amounted to 35%. Further, the Ki at α2-Adrnoceptor is 1 nM.
On α2-Adrnoceptor, `C[C@H]1c2ccccc2C[C@H]1NC1=NCCO1` (relative stereo) [Example 6, 2-[cis-2-(2,3-dihydro-1-methyl-1H-indene)amino]4,5-dihydrooxazole] registered a Ki of 2 nM.
Regarding `Clc1ccc2c(c1)CC(NC1=NCCO1)C2` (stereo not shown) [Example 4, 2-[2-(5-Chloro-2,3-dihydro-1H-indene)amino]4,5-dihydrooxazole], in assay [1], the “% Reduction in area” value is on record as 44%. The molecule further displayed a Ki on α2-Adrnoceptor of 25 nM.
With `c1ccc2c(c1)CCC(NC1=NCCO1)C2` (stereo not shown) [Example 8, 2-[2-(1,2,3,4-Tetrahydronaphthyl)amino]4,5-dihydrooxazole], the “% Reduction in area” value in assay [1] was 18%.
`Cc1ccc2c(c1)CC(NC1=NCCO1)C2` (stereo not shown) [Example 5, 2-[2-(2,3-dihydro-5-methyl-1H-indene)amino]4,5-dihydrooxazole]: the inhibitory constant (Ki) at α2-Adrnoceptor was 25 nM.
On α2-Adrnoceptor, `C[C@H]1c2ccccc2C[C@@H]1NC1=NCCO1` (relative stereo) [Example 7, 2-[Trans-2-(2,3-dihydro-1-methyl-1H-indene)amino]4,5-dihydrooxazole] returned a Ki of 2 nM.
In the case of `c1ccc2c(c1)CC(NC1=NCCS1)C2` [Example 9, 2-[2-(2,3-Dihydro-1H-indene)amino]4,5-dihydrothiazole], the “% Reduction in area” value in assay [1] came to 33%. On α2-Adrnoceptor ([3H] Rauwolscine (0.5-1.0 nM), human platelet membranes, 30 minutes at 30° C., Cheng-Prussoff equation, read-out: Binding Affinity Ki), the inhibitory constant (Ki) turned out to be 190 nM.

The values above are taken from US4861789A, “Dihydro-indene-amine-dihydrooxazoles” (Beecham Group plc, priority 1986, dated 1989).
